# Reference: patent US20100056522A1, “INTRAOCULAR PRESSURE-LOWERING AGENT COMPRISING COMPOUND HAVING HISTONE DEACETYLASE INHIBITOR EFFECT AS ACTIVE INGREDIENT” (Santen Pharmaceutical Co., Ltd., priority 2007, published 2010)
# How the values were obtained:
# [1] = test system: HDAC (HeLa nuclear extract); experiment: Test for evaluation of an HDAC inhibitory effect (HDAC Fluorimetric Assay/Drug Discovery Kit, Biomol); format: biochemical; settings: final concentration of test compound 30 μM, rates of more than 100% are shown as 100%
# Method: Using HDAC Fluorimetric Assay/Drug Discovery Kit (manufactured by Biomol), an HDAC inhibitory effect of the present compounds was measured according to the protocol included with the kit. The kit contains Buffer, HeLa nuclear extract (includes an HDAC), Substrate, Developer and Trichostatin A (an HDAC inhibitor).
# A test compound was dissolved in dimethyl sulfoxide, whereby a 2 mg/mL solution was prepared. Then, the resulting solution was diluted with Buffer containing 5% dimethyl sulfoxide, whereby a 150 μM test compound solution was prepared.
# 1) To a 384-well culture plate, the test compound solution was added in an amount of 2 μL per well.
# 2) HeLa nuclear extract was diluted 30-fold with Buffer. The resulting solution was added in an amount of 3 μL per well and then, incubation was performed at 37° C. for 2 hours.
# 3) Substrate was diluted 500-fold with Buffer. The resulting solution was added in an amount of 5 μL per well (the final concentration of the test compound was 30 μM) and then, incubation was performed at 37° C. for 10 minutes.
# 4) Developer was diluted 20-fold with Buffer and Trichostatin A (2 μM) was added to it. The resulting solution was added in an amount of 10 μL per well and then, incubation was performed at room temperature for 15 minutes.
# 5) The fluorescence intensity of each well was measured using multilabel counter ARVO (manufactured by Wallac) with excitation at 360 nm and emission at 460 nm.
# 6) A control data was obtained from the same experiment except that Buffer containing 5% DMSO was added instead of the test compound solution as the above-mentioned procedure from 1) to 5).
# 7) A blank data was obtained from the same experiment except that Buffer containing 5% DMSO was added instead of the test compound solution and that Buffer was added instead of Hela nuclear extract as the above-mentioned procedure from 1) to 5).
# Enzyme inhibitory rate (%) was calculated using the following equation.
# (Enzyme Inhibitory Rate(%))=100×[1−{(Fluorescence Intensity of Test Compound Solution)−(Florescence Intensity of Blank)}/{(Florescence Intensity of Control)−(Florescence Intensity of Blank)}]
# [2] = test system: TM-1 cells (human trabecular meshwork cell line); experiment: Test for evaluation of effect of morphological change on trabecular meshwork cells (cell shape index); format: cell-based; settings: 10 μM, 24 hours, control CSI 0.679, lower CSI indicates greater morphological change
# Method: As a method for evaluating a cellular morphological change, an evaluation system using the cell shape index (hereinafter referred to as “CSI”) as an index has been reported in The Journal of Clinical Investigation, 103, 1141-1150 (1999). Therefore, according to the method described in the above document, an effect of morphological change by the present compounds on trabecular meshwork cells was evaluated.
# A human trabecular meshwork cell line (hereinafter referred to as “TM-1 cells”) reported in Investigative Opthalmology & Visual Science, 43, 151-161 (2002) was used.
# Culture medium 1: A reagent was prepared by adding fetal bovine serum (10%), L-glutamine (2 mM), amphotericin B (2.5 μg/mL), and gentamicin (25 μg/mL) to Dulbecco's Modified Eagle Medium (hereinafter referred to as “D-MEM”).
# Culture medium 2: Fetal bovine serum (3%), L-glutamine (2 mM), amphotericin B (2.5 μg/mL), and gentamicin (25 μg/mL) were added to D-MEM.
# Cell staining liquid: A mixed liquid of Calcein-AM (16 μM) and Hoechst 33342 (40 μM) was prepared by diluting a Calcein-AM solution (cytoplasmic staining reagent, manufactured by Dojindo Laboratories) and a Hoechst 33342 solution (nuclear staining reagent, manufactured by Dojindo Laboratories) with D-MEM containing L-glutamine (2 mM), amphotericin B (2.5 μg/mL), and gentamicin (25 μg/mL).
# TM-1 cells subcultured at 37° C. in a 8% carbon dioxide gas atmosphere were treated with a trypsin/EDTA solution (0.05% trypsin and 0.53 mM tetrasodium ethylenediaminetetraacetate) at 24 hours before performing a drug treatment mentioned below and seeded on a 96-well culture plate. The culture medium 1 was used for the subculture of the cells. The culture medium 2 was used for the cell culture after seeding the cells on the plate.
# A test compound was dissolved in dimethyl sulfoxide, whereby a 5 mM solution was prepared. Then, the resulting solution was diluted with the culture medium 2, whereby a 200 μM test compound solution was prepared.
# It has been reported that Y-27632 which is a Rho kinase inhibitor induces a morphological change in trabecular meshwork cells in Investigative Opthalmology & Visual Science, 42, 137-144 (2001). Therefore, Y-27632 (produced according to the method described in WO 90/05723) was used as a positive control, and dissolved in dimethyl sulfoxide in the same manner as the test compound, whereby a 5 mM solution was prepared, and then, the resulting solution was diluted with the culture medium 2, whereby a 200 μM positive control compound solution was prepared.
# 1) To a 96-well culture plate, a solution of TM-1 cells adjusted to a cell density of […] was added in an amount of 95 μL (1.5×10^4 cells) per well.
# 2) Incubation was performed at 37° C. in a 8% carbon dioxide gas atmosphere for 24 hours.
# 3) The test compound solution or positive control compound solution was added in an amount of 5 μL per well (the final concentration of the test compound or positive control compound was 10 μM). As a control, the culture medium 2 containing dimethyl sulfoxide (4%) was added in an amount of 5 μL per well.
# 4) Incubation was performed at 37° C. in a 8% carbon dioxide gas atmosphere for 24 hours.
# 5) The cell staining liquid was added in an amount of 10 μL per well.
# 6) Incubation was performed at 37° C. in a 8% carbon dioxide gas atmosphere for 1 hour to stain the cells.
# 7) A 37% formaldehyde solution was added in an amount of 10 μL per well.
# 8) Incubation was performed at room temperature for 1 hour to fix the cells.
# 9) Washing with phosphate-buffered saline was performed.
# 10) Using Array Scan Vti HCS reader (manufactured by Cellomics), images of stained cells magnified with a 20-fold objective lens were captured in 80 fields (10 fields×8 wells) per test compound addition group.
# 11) CSI was calculated for each cell and an average value was obtained for each test compound addition group.
# CSI was calculated using the following equation.
# CSI=4π×(Cell Area)/(Cell Perimeter)^2
Structure (SMILES),Enzyme Inhibitory Rate (%) [1],CSI [2]
"CN(C)CCCN(Cc1ccc(C(=O)Nc2ccccc2N)nc1)C(=O)Nc1ccc(OC(F)(F)F)cc1 [Compound 1-21, N-(2-Aminophenyl)-5-[1-(3-dimethylaminopropyl)-3-(4-trifluoromethoxyphenyl)ureidomethyl]pyridine-2-carboxylic acid amide]",98%,0.575
"CCOC(=O)CCN(Cc1ccc(C(=O)Nc2ccccc2N)nc1)C(=O)Nc1ccc(N(C)C)cc1 [Compound 1-27, N-(2-Aminophenyl)-5-[3-(4-dimethylaminophenyl)-1-(2-ethoxycarbonylethyl)ureidomethyl]pyridine-2-carboxylic acid amide]",97%,0.624
"COc1ccccc1NC(=O)N(CCCCN1CCOCC1)Cc1ccc(C(=O)Nc2ccccc2N)nc1 [Compound 1-115, N-(2-Aminophenyl)-5-[3-(2-methoxyphenyl)-1-[4-(morpholin-4-yl)butyl]ureidomethyl]pyridine-2-carboxylic acid amide]",97%,0.467
"CN(C)CCN(Cc1ccc(C(=O)Nc2ccccc2N)nc1)C(=O)Nc1ccc2c(c1)OCCO2 [Compound 1-53, N-(2-Aminophenyl)-5-[3-(2,3-dihydrobenzo[1,4]dioxin-6-yl)-1-(2-dimethylaminoethyl)ureidomethyl]pyridine-2-carboxylic acid amide]",98%,0.502
"CN(C)CCCN(Cc1ccc(C(=O)Nc2ccccc2N)nc1)C(=O)Nc1ccc(C#N)cc1 [Compound 1-20, N-(2-Aminophenyl)-5-[3-(4-cyanophenyl)-1-(3-dimethylaminopropyl)ureidomethyl]pyridine-2-carboxylic acid amide]",99%,0.516
"CN(C)CCCN(Cc1ccc(C(=O)Nc2ccccc2N)nc1)C(=O)Nc1nc2ccccc2s1 [Compound 1-30, N-(2-Aminophenyl)-5-[3-(1,3-benzothiazol-2-yl)-1-(3-dimethylaminopropyl)ureidomethyl]pyridine-2-carboxylic acid amide]",100%,0.564
"CN(C)CCCN(Cc1ccc(C(=O)Nc2ccccc2N)nc1)C(=O)Nc1nc2ccc(F)cc2s1 [Compound 1-44, N-(2-Aminophenyl)-5-[1-(3-dimethylaminopropyl)-3-(6-fluoro-1,3-benzothiazol-2-yl)ureidomethyl]pyridine-2-carboxylic acid amide]",98%,0.554
"CCN(CC)CCCN(Cc1ccc(C(=O)Nc2ccccc2N)nc1)C(=O)Nc1ccc(F)c(F)c1 [Compound 1-46, N-(2-Aminophenyl)-5-[1-(3-diethylaminopropyl)-3-(3,4-difluorophenyl)ureidomethyl]pyridine-2-carboxylic acid amide]",98%,0.547
"Nc1ccccc1NC(=O)c1ccc(CN(CCCCN2CCOCC2)C(=O)Nc2ccc3c(c2)OCCO3)cn1 [Compound 1-90, N-(2-Aminophenyl)-5-[3-(2,3-dihydrobenzo[1,4]dioxin-6-yl)-1-[4-(morpholin-4-yl)butyl]ureidomethyl]pyridine-2-carboxylic acid amide]",98%,0.480
"CN1CCN(CCCN(Cc2ccc(C(=O)Nc3ccccc3N)nc2)C(=O)Nc2ccc3c(c2)OCCO3)CC1 [Compound 1-68, N-(2-Aminophenyl)-5-[3-(2,3-dihydrobenzo[1,4]dioxin-6-yl)-1-[3-(4-methylpiperazin-1-yl)propyl]ureidomethyl]pyridine-2-carboxylic acid amide]",99%,0.502
"Cc1cc(NC(=O)N(CCCN(C)C)Cc2ccc(C(=O)Nc3ccccc3N)nc2)ccc1F [Compound 1-14, N-(2-Aminophenyl)-5-[1-(3-dimethylaminopropyl)-3-(4-fluoro-3-methylphenyl)ureidomethyl]pyridine-2-carboxylic acid amide]",100%,0.520
"Cc1ccc(NC(=O)N(CCCN(C)C)Cc2ccc(C(=O)Nc3ccccc3N)nc2)cc1F [Compound 1-13, N-(2-Aminophenyl)-5-[1-(3-dimethylaminopropyl)-3-(3-fluoro-4-methylphenyl)ureidomethyl]pyridine-2-carboxylic acid amide]",100%,0.545
"CN(C)CCCN(Cc1ccc(C(=O)Nc2ccccc2N)nc1)C(=O)Nc1ccc2c(c1)OCCO2 [Compound 1-2, N-(2-Aminophenyl)-5-[3-(2,3-dihydrobenzo[1,4]dioxin-6-yl)-1-(3-dimethylaminopropyl)ureidomethyl]pyridine-2-carboxylic acid amide]",100%,0.516
"CCN(CC)CCCN(Cc1ccc(C(=O)Nc2ccccc2N)nc1)C(=O)Nc1ccc(F)c([N+](=O)[O-])c1 [Compound 1-51, N-(2-Aminophenyl)-5-[1-(3-diethylaminopropyl)-3-(4-fluoro-3-nitrophenyl)ureidomethyl]pyridine-2-carboxylic acid amide]",98%,0.518
"Nc1ccccc1NC(=O)c1ccc(CN(CCCO)C(=O)Nc2ccc3c(c2)OCO3)cn1 [Compound 1-25, N-(2-Aminophenyl)-5-[3-(benzo[1,3]dioxol-5-yl)-1-(3-hydroxypropyl)ureidomethyl]pyridine-2-carboxylic acid amide]",97%,0.571
"CN(C)c1ccc(C(=O)NCCCCCCC(=O)NO)cc1 [M 344, 4-Dimethylamino-N-(6-hydroxycarbamoylhexyl)benzamide, reference compound]",99%,0.500
"Nc1ccccc1NC(=O)c1ccc(CN(CCO)C(=O)Nc2ccc3c(c2)OCCO3)cn1 [Compound 2-10, N-(2-Aminophenyl)-5-[3-(2,3-dihydrobenzo[1,4]dioxin-6-yl)-1-(2-hydroxyethyl)ureidomethyl]pyridine-2-carboxylic acid amide]",99%,0.582
